# Experimental data taken from ChEMBL document CHEMBL4024727, “Synthesis and antimycobacterial screening of new thiazolyl-oxazole derivatives” (Eur J Med Chem, 2017).
# Tests used:
# [1] = test system: Mycobacterium tuberculosis; experiment: Growth inhibition of Mycobacterium tuberculosis H37Ra ATCC 25177 at 30 ug/ml by XTT dye based two-fold dilution method relative to control; type: functional; conditions: read-out: GI
# [2] = test system: Mycobacterium tuberculosis; experiment: Growth inhibition of Mycobacterium tuberculosis H37Ra ATCC 25177 at 10 ug/ml by XTT dye based two-fold dilution method relative to control; type: functional; conditions: read-out: GI
# [3] = test system: Mycobacterium tuberculosis; experiment: Growth inhibition of Mycobacterium tuberculosis H37Ra ATCC 25177 at 3 ug/ml by XTT dye based two-fold dilution method relative to control; type: functional; conditions: read-out: GI
# [4] = test system: Mycobacterium tuberculosis; experiment: Growth inhibition of Mycobacterium bovis BCG ATCC 35743 at 30 ug/ml by nitrate reductase based two-fold dilution assay relative to control; type: functional; conditions: BCG str. ATCC 35743, read-out: GI
# [5] = test system: Mycobacterium tuberculosis; experiment: Growth inhibition of Mycobacterium bovis BCG ATCC 35743 at 10 ug/ml by nitrate reductase based two-fold dilution assay relative to control; type: functional; conditions: BCG str. ATCC 35743, read-out: GI
# [6] = test system: Mycobacterium tuberculosis; experiment: Growth inhibition of Mycobacterium bovis BCG ATCC 35743 at 1 ug/ml by nitrate reductase based two-fold dilution assay relative to control; type: functional; conditions: BCG str. ATCC 35743, read-out: GI
# [7] = test system: Mycobacterium tuberculosis; experiment: Antitubercular activity against Mycobacterium tuberculosis H37Ra ATCC 25177 dormant stage by XTT dye based two-fold dilution method; type: functional
# [8] = test system: Mycobacterium tuberculosis; experiment: Antitubercular activity against Mycobacterium bovis BCG ATCC 35743 dormant stage by nitrate reductase based two-fold dilution assay; type: functional; conditions: BCG str. ATCC 35743
# Escherichia coli [9] = experiment: Growth inhibition of Escherichia coli NCIM 2576 at 30 ug/ml measured after 8 hrs relative to control; type: functional; conditions: NCIM 2576, 8 h, read-out: GI
# Escherichia coli [10] = experiment: Growth inhibition of Escherichia coli NCIM 2576 at 10 ug/ml measured after 8 hrs relative to control; type: functional; conditions: NCIM 2576, 8 h, read-out: GI
# Escherichia coli [11] = experiment: Growth inhibition of Escherichia coli NCIM 2576 at 1 ug/ml measured after 8 hrs relative to control; type: functional; conditions: NCIM 2576, 8 h, read-out: GI
# Pseudomonas fluorescens [12] = experiment: Growth inhibition of Pseudomonas fluorescens NCIM 2059 at 30 ug/ml measured after 8 hrs relative to control; type: functional; conditions: NCIM 2059, 8 h, read-out: GI
# Pseudomonas fluorescens [13] = experiment: Growth inhibition of Pseudomonas fluorescens NCIM 2059 at 10 ug/ml measured after 8 hrs relative to control; type: functional; conditions: NCIM 2059, 8 h, read-out: GI
# Pseudomonas fluorescens [14] = experiment: Growth inhibition of Pseudomonas fluorescens NCIM 2059 at 1 ug/ml measured after 8 hrs relative to control; type: functional; conditions: NCIM 2059, 8 h, read-out: GI
# Staphylococcus aureus [15] = experiment: Growth inhibition of Staphylococcus aureus NCIM 2602 at 30 ug/ml measured after 12 hrs relative to control; type: functional; conditions: NCIM 2602, 12 h, read-out: GI
# Staphylococcus aureus [16] = experiment: Growth inhibition of Staphylococcus aureus NCIM 2602 at 10 ug/ml measured after 12 hrs relative to control; type: functional; conditions: NCIM 2602, 12 h, read-out: GI
# Staphylococcus aureus [17] = experiment: Growth inhibition of Staphylococcus aureus NCIM 2602 at 1 ug/ml measured after 12 hrs relative to control; type: functional; conditions: NCIM 2602, 12 h, read-out: GI
# Bacillus subtilis [18] = experiment: Growth inhibition of Bacillus subtilis NCIM 2162 at 30 ug/ml measured after 12 hrs relative to control; type: functional; conditions: NCIM 2162, 12 h, read-out: GI
# Bacillus subtilis [19] = experiment: Growth inhibition of Bacillus subtilis NCIM 2162 at 10 ug/ml measured after 12 hrs relative to control; type: functional; conditions: NCIM 2162, 12 h, read-out: GI
# Bacillus subtilis [20] = experiment: Growth inhibition of Bacillus subtilis NCIM 2162 at 1 ug/ml measured after 12 hrs relative to control; type: functional; conditions: NCIM 2162, 12 h, read-out: GI
# Escherichia coli [21] = experiment: Antibacterial activity against Escherichia coli NCIM 2576 measured after 8 hrs; type: functional; conditions: NCIM 2576, 8 h
# Pseudomonas fluorescens [22] = experiment: Antibacterial activity against Pseudomonas fluorescens NCIM 2059 measured after 8 hrs; type: functional; conditions: NCIM 2059, 8 h
# Staphylococcus aureus [23] = experiment: Antibacterial activity against Staphylococcus aureus NCIM 2602 measured after 12 hrs; type: functional; conditions: NCIM 2602, 12 h
# Bacillus subtilis [24] = experiment: Antibacterial activity against Bacillus subtilis NCIM 2162 measured after 12 hrs; type: functional; conditions: NCIM 2162, 12 h
# [25] = (§1) Growth inhibition of human HeLa cells by MTT assay; type: cell-based; conditions: HeLa cells
# HeLa = experiment: as §1; type: cell-based; conditions: hela
# [26] = (§2) Growth inhibition of human A549 cells by MTT assay; type: cell-based; conditions: A549 cells
# A549 = experiment: as §2; type: cell-based; conditions: a549
# [27] = (§3) Growth inhibition of human PANC1 cells by MTT assay; type: cell-based, PANC-1; conditions: PANC-1 cells
# PANC-1 = experiment: as §3; type: cell-based; conditions: panc-1
# [28] = Selectivity index, ratio of GI50 for human HeLa cells to MIC for Mycobacterium tuberculosis H37Ra ATCC 25177 dormant stage; type: toxicity, cell-based; conditions: read-out: Selectivity Index
# [29] = Selectivity index, ratio of GI50 for human HeLa cells to MIC for Mycobacterium bovis BCG ATCC 35743 dormant stage; type: toxicity, cell-based; conditions: read-out: Selectivity Index
# [30] = Selectivity index, ratio of GI50 for human A549 cells to MIC for Mycobacterium tuberculosis H37Ra ATCC 25177 dormant stage; type: toxicity; conditions: read-out: Selectivity Index
# [31] = Selectivity index, ratio of GI50 for human A549 cells to MIC for Mycobacterium bovis BCG ATCC 35743 dormant stage; type: toxicity; conditions: read-out: Selectivity Index
# [32] = Selectivity index, ratio of GI50 for human PANC1 cells to MIC for Mycobacterium tuberculosis H37Ra ATCC 25177 dormant stage; type: toxicity; conditions: PANC-1 cells, read-out: Selectivity Index
# [33] = Selectivity index, ratio of GI50 for human PANC1 cells to MIC for Mycobacterium bovis BCG ATCC 35743 dormant stage; type: toxicity; conditions: PANC-1 cells, read-out: Selectivity Index
smiles,measurement,setting,value
Cc1nc(-c2ccc(F)cc2)oc1-c1csc(Cc2ccc(F)cc2)n1,inhibition of growth at 30 µg/mL,[1],93%
same,inhibition of growth at 10 µg/mL,[2],93%
same,inhibition of growth at 3 µg/mL,[3],91%
same,inhibition of growth at 30 µg/mL,[4],96%
same,inhibition of growth at 10 µg/mL,[5],95%
same,inhibition of growth at 1 µg/mL,[6],93%
same,IC50,[7],180 nM
same,MIC90,[7],1.74 µM
same,IC50,[8],190 nM
same,MIC90,[8],1.76 µM
same,inhibition of growth at 30 µg/mL,Escherichia coli [9],94.8%
same,inhibition of growth at 10 µg/mL,Escherichia coli [10],85.2%
same,inhibition of growth at 1 µg/mL,Escherichia coli [11],72.2%
same,inhibition of growth at 30 µg/mL,Pseudomonas fluorescens [12],95.9%
same,inhibition of growth at 10 µg/mL,Pseudomonas fluorescens [13],83.2%
same,inhibition of growth at 1 µg/mL,Pseudomonas fluorescens [14],78.6%
same,inhibition of growth at 30 µg/mL,Staphylococcus aureus [15],94.1%
same,inhibition of growth at 10 µg/mL,Staphylococcus aureus [16],82.1%
same,inhibition of growth at 1 µg/mL,Staphylococcus aureus [17],80%
same,inhibition of growth at 30 µg/mL,Bacillus subtilis [18],96.7%
same,inhibition of growth at 10 µg/mL,Bacillus subtilis [19],88.2%
same,inhibition of growth at 1 µg/mL,Bacillus subtilis [20],83.5%
same,MIC,Escherichia coli [21],60.3 µM
same,MIC,Pseudomonas fluorescens [22],54.8 µM
same,MIC,Staphylococcus aureus [23],62.7 µM
same,MIC,Bacillus subtilis [24],39.1 µM
same,GI50,[25],94.9 µg/mL
same,GI90,HeLa,> 250 µg/mL
same,GI50,[26],> 250 µg/mL
same,GI90,A549,> 250 µg/mL
same,GI50,[27],> 250 µg/mL
same,GI90,PANC-1,> 250 µg/mL
same,selectivity ratio,[28],148
same,selectivity ratio,[29],146
same,selectivity ratio,[30],391
same,selectivity ratio,[31],385
same,selectivity ratio,[32],391
same,selectivity ratio,[33],385
